Tests used:
[1] = molecular target: Human immunodeficiency virus type 1 reverse transcriptase (Human immunodeficiency virus 1) (UniProt Q72547)
[2] = molecular target: Human immunodeficiency virus type 1 reverse transcriptase (Human immunodeficiency virus 1, UniProt Q72547); test: Inhibition of HIV1 reverse transcriptase
[3] = Half life in human administered as multiple doses; format: ADME, organism-based; details: in vivo
[4] = Tmax in human plasma after the first dose of drug; format: ADME, organism-based
[5] = Half life in human administered as single dose; format: ADME, organism-based; details: in vivo

| Structure (SMILES) | IC90 [1] [nM] | further results |
| --- | --- | --- |
| O=C1Nc2ccc(Cl)cc2[C@@](C#Cc2ccccn2)(C(F)(F)F)O1 | 5.39 |  |
| C=CCO[C@]1(C(F)(F)F)OC(=O)Nc2ccc(Cl)cc21 | 3.9 |  |
| Cc1ccc2c(c1)C(O)(C#CC1CC1)C(=O)N2C (stereo not drawn) | 6 |  |
| CN(C)c1ccc2c(c1)[C@@](C#CC1CC1)(C(F)(F)F)OC(=O)N2 | 8.33 |  |
| CCOC(=O)[C@@H]1C[C@@]12C(=O)Nc1ccc(Cl)cc12 |  | IC50 [2]: 59 nM |
| O=C1Nc2ccc(Cl)cc2[C@@](C#CC2CC2)(C(F)(F)F)N1 | 2.7 |  |
| O=S1(c2ccccc2)=NC(=S)Nc2ccccc21 (stereo not drawn) |  | IC50 [2]: 950 nM |
| CCOC1(c2ccccc2)c2cc(Cl)ccc2NC(=O)N1C (stereo not drawn) |  | IC50 [2]: 56 nM |
| Cc1ccc2c(c1)[C@@](C#CC1CC1)(C(F)(F)F)OC(=O)N2 | 7.11 |  |
| CCO[C@]1(C(F)(F)F)OC(=O)Nc2ccc(Cl)cc21 | 18.3 |  |
| CC[C@H]1C(=O)Nc2ccc(F)cc2N1C(=O)OC(C)C [OPAVIRALINE] | 4.8 | IC50 [2]: 45 nM |
| O=C1Nc2ccccc2[C@@](C#CC2CC2)(C(F)(F)F)O1 | 10.3 |  |
| CC(=O)Nc1ccc2c(c1)[C@@](C#CC1CC1)(C(F)(F)F)OC(=O)N2 | 296 |  |
| CCCO[C@@](C#CC1CC1)(c1cc(CC)c(C)[nH]c1=O)C(F)(F)F | 32 |  |
| C#CC1(C2CC2)c2cc(Cl)ccc2NC(=O)N1C (stereo not drawn) |  | IC50 [2]: 6 nM |
| O=C1Nc2cccc(F)c2[C@@](C#CC2CC2)(C(F)(F)F)O1 | 4.35 |  |
| O=C1Nc2ccc(OC(F)(F)F)cc2[C@@](C#CC2CC2)(C(F)(F)F)O1 | 18.9 |  |
| O=C1Nc2ccc(Cl)cc2[C@@](C#Cc2ccco2)(C(F)(F)F)O1 | 3.8 |  |

| Structure (SMILES) | IC90 [1] [nM] | further results |
| --- | --- | --- |
| CCCCO[C@]1(C(F)(F)F)OC(=O)Nc2ccc(Cl)cc21 | 10.2 |  |
| C[C@@H]1O[C@](/C=C/C2CC2)(C(F)(F)F)c2cc(Cl)ccc2NC1=O |  | IC50 [2]: 46 nM |
| CNc1ccc2c(c1)[C@@](C#CC1CC1)(C(F)(F)F)OC(=O)N2 | 9.02 |  |
| COc1ccc2c(c1)N(C(=O)OC(C)C)[C@@H](CSC)C(=O)N2 |  | IC50 [2]: 2 nM |
| CC(C)=CCN1C(C)C(=O)Nc2ccc(Cl)cc2S1(=O)=O (stereo not drawn) |  | IC50 [2]: 800 nM |
| C=CCC[C@]12C[C@@]1(C(=O)OCC)C(=O)Nc1ccc(Br)cc12 |  | IC50 [2]: 1 nM |
| O=C1Nc2ccc([N+](=O)[O-])cc2[C@@](C#CC2CC2)(C(F)(F)F)O1 | 0.83 |  |
| CC(C)C#C[C@]1(C(F)(F)F)NC(=O)Nc2ccc(Cl)cc21 | 3 |  |
| CC(C)CCO[C@]1(C(F)(F)F)OC(=O)Nc2ccc(Cl)cc21 | 10.1 |  |
| O=C1Nc2ccc(Cl)cc2[C@@](C#CC2CC2)(C(F)(F)F)O1 [EFAVIRENZ] |  | half-life [3]: 40 h; Tmax [4]: 5 h; half-life [5]: 52 h |
| CC(C)=CCO[C@]1(C(F)(F)F)OC(=O)Nc2ccc(Cl)cc21 | 2.68 |  |
| O=C1Nc2ccc(-c3ccccc3)cc2[C@@](C#CC2CC2)(C(F)(F)F)O1 | 279 |  |
| Nc1ccc2c(c1)[C@@](C#CC1CC1)(C(F)(F)F)OC(=O)N2 | 20.6 |  |
| COc1ccc2c(c1)[C@@](C#CC1CC1)(C(F)(F)F)OC(=O)N2 | 2 |  |
| CN1C(=O)C(O)(C#CC2CC2)c2ccccc21 (stereo not drawn) | 40 |  |
| CCCCC[C@]12C[C@@]1(C(=O)OCC)C(=O)Nc1ccc(Br)cc12 |  | IC50 [2]: 1 nM |
| O=C1Nc2ccc(F)cc2[C@@](C#CC2CC2)(C(F)(F)F)O1 | 7.35 |  |
